{"source": "patent US10011628B2", "about": "“Multivalent sialic acid derivatives” (priority 2013, dated 2018)", "key": {"HAdV-37 fiber knob": {"target": "HAdV-37 fiber knob (Human adenovirus D37, UniProt Q64823)", "test": "Surface plasmon resonance (SPR), immobilized HAdV-37 fiber knobs", "type": "binding, human adenovirus HAdV-37", "details": "for binding mode with HAdV-37 fiber knob: SPR", "method": "Finally, ME0385, ME0386 and ME0322 were investigated in surface plasmon resonance (SPR) experiments and their respective binding affinities (Kds) for immobilized HAdV-37 fiber knobs were determined (see below for further details). […] It is also worth noting the influence of the HAdV-37 fiber knob construct on the Kd values.\nThe kinetic measurements were performed using a surface plasmon resonance BIAcore T100 instrument. HAdV-37 knob proteins were covalently coupled to a CMS sensorchip using the amine coupling kit (GE Healthcare), to a concentration of 14-15 ng/mm^2 (˜15000RU). Binding of the trivalent sialic acid conjugates ME0322, ME0385 and ME0386 to the immobilized knob was performed in 10 mM HEPES, 0.15 M NaCl and 0.05% P20 pH 7.4 (1×HBS-EP+, GE Healthcare). The concentrations of trivalent sialic acid used were 400, 200, 100, 50 (twice), 25, 12.5 (twice), 6.25, 3.125, 1.56 and 0.78 μM. The binding affinities (Kds) were calculated using Biacore T100 evaluation software."}, "[1]": {"tested_on": "HAdV-37 virions (attachment to HCE cells)", "details": "reported in the art (background), cited from earlier work"}, "[2]": {"tested_on": "HAdV-37 virions (infection of HCE cells)", "details": "cited from earlier work"}, "[3]": {"tested_on": "HAdV-37 virions (attachment to HCE cells)", "test": "Cell-binding assay: attachment of 35S-labeled HAdV-37 virions to HCE cells", "type": "cell-based", "details": "read-out: IC50, preventing attachment of HAdV-37 virions to HCE cells", "method": "In order to investigate the efficiency of the newly synthesized compounds (ME0385, ME0386, ME0407, ME0408, ME0461, and ME0462) to prevent the attachment of HAdV-37 virions to HCE cells, cell-binding assays based on ^35S-labeled virions were performed. Based on previous studies ME0322, sialic acid and GD1a glycan were used as reference compounds (Nilsson et al N. Nat. Med. 2011, 17, 105 and Spjut et al Angew. Chem. Int. Ed. 2011, 50, 6519). The assays were carried out (see below for further details) essentially as previously described (Arnberg et al J. Virol. 2000, 74, 42 and Arnberg et al J. Virol. 2000, 74, 7691).\nIn brief, ^35S-labeled HAdV-37 virions were pre-incubated with or without the trivalent sialic acid derivatives, GD1a glycan and sialic acid at various concentrations. The mixtures were incubated with HCE cells and unbound virions were then washed away. Finally, the cell-associated radioactivity was counted by using a scintillation counter.\nS-labeled HAdV-37 virions (5×10^8/well) were pre-incubated in binding buffer (50 μL; BB: Dulbecco's modified eagle's medium containing 1% BSA (Roche AB, Stockholm, Sweden) and HEPES (20 mM, EuroClone, Milan, Italy), pH 7.5) with or without the trivalent sialic acid derivatives, GD1a glycan or sialic acid at various concentrations (cf. FIG. 1a) in a 96-well microplate at +4° C. for 1 h. These mixtures were then added to HCE cells prepelleted (1×10^5/well) in a 96-well microplate. After re-suspension, the mixtures were incubated at +4° C. for 1 h. Finally, unbound virions were washed away with BB and the cell-associated radioactivity was counted by using a Wallac 1409 scintillation counter."}, "[4]": {"tested_on": "HAdV-37 virions (infection of HCE cells)", "test": "Infection assay: infection of HCE cells by HAdV-37 virions (immunofluorescence)", "type": "cell-based", "details": "for pIC50: Human adenovirus sp., HCE, 44 h of infection, immunofluorescence, read-out: IC50, preventing infection of HCE cells by HAdV-37 virions; for prevention of infection of HCE cells by HAdV-37 virions compared with ME0322: in words", "method": "In order to confirm the results from the cell-binding assays and to further evaluate our set of compounds, infection experiments were performed (FIGS. 1b, 3a and 3b). The assays were carried out (see below for further details) essentially as previously described ((Arnberg et al. J. Virol. 2000, 74, 42 and Arnberg et al. J. Virol. 2000, 74, 7691)).\nIn brief, unlabeled virions were pre-incubated with or without the trivalent sialic acid derivatives, GD1a glycan or sialic acid at various concentrations. These mixtures were then added to HCE cells and incubated at +4° C. Unbound virions were washed away, the resulting mixtures were incubated at +37° C. and a synchronized infection—all virions enter the cells simultaneously—was then obtained. After 44 h of infection, the cells were rinsed, fixed, incubated with rabbit polyclonal anti-HAdV-37 antibodies prior to being washed and stained. Finally, the cells were washed and examined by immunofluorescence microscopy.\n7×10^7 non-labeled virions/well in 48-well plates were pre-incubated in serum free growth media (2004), with or without the trivalent sialic acid derivatives, GD1a glycan or sialic acid at various concentrations (cf. FIG. 2B) at +4° C. After 1 h, the mixtures were transferred to new 48-well plates containing 1×10^5 adherent HCE cells/well and incubated at +4° C. After 1 h, unbound virions were washed away with serum free growth media and the resulting mixtures were incubated with growth media containing 1% fetal bovine serum (FBS) at +37° C. After 44 h of infection, the cells were rinsed in PBS, fixed with cold (−20° C.) 99% methanol for 10 min and incubated with rabbit polyclonal anti-HAdV-37 antibodies diluted 1:200 in PBS (pH 7.4) at room temperature. After 1 h, the cells were washed in PBS and stained with FITC-labeled swine anti-rabbit IgG antibodies (Dako-cytomation, Glostrup, Denmark) diluted 1:100 in PBS for 1 h at room temperature. Finally, the cells were washed in PBS and examined in an immunofluorescence microscope (Axiovert 25, Carl Zeiss, Germany; 10× magnification)."}, "[5]": {"details": "35S-labeled virions pre-incubated with compound, +4° C., HCE cells"}}, "note": "pIC50, pKd: −log10 of the molar value. Where two headings read alike, the source gives them in different places.", "data": [{"compound": "CC(=O)NC1C(O)CC(OCCCCCNc2c(NCCN(CCNc3c(NCCCCCOC4(C(=O)O)CC(O)C(NC(C)=O)C(C(O)C(O)CO)O4)c(=O)c3=O)CCNc3c(NCCCCCOC4(C(=O)O)CC(O)C(NC(C)=O)C(C(O)C(O)CO)O4)c(=O)c3=O)c(=O)c2=O)(C(=O)O)OC1C(O)C(O)CO", "note": "(centres unmarked) [ME0322]", "values": [{"measurement": "binding mode with HAdV-37 fiber knob", "setting": "HAdV-37 fiber knob", "value": "one-to-one binding mode"}, {"measurement": "pKd", "setting": "HAdV-37 fiber knob; read-out: binding affinity (Kd) for immobilized HAdV-37 fiber knobs, BIAcore T100, HBS-EP+ pH 7.4", "value": 3.90}, {"measurement": "potency compared with natural sialic acid monosaccharide", "setting": "[1]; assay not specified", "value": "four orders of magnitude more potent than the natural sialic acid monosaccharide"}, {"measurement": "preventing binding of the virus, compared with 17-valent sialic acid-HSA conjugate", "setting": "[1]", "value": "as effective as 17-valent sialic acid-HSA conjugate"}, {"measurement": "pIC50", "setting": "[2]; infection of HCE cells by HAdV-37, earlier estimate, read-out: half maximal inhibitory concentration, previously estimated", "value": 6.42}, {"measurement": "inhibiting infection of HCE cells by HAdV-37, compared with HSA-conjugate", "setting": "[2]; reported in the art (background)", "value": "far more potent than the HSA-conjugate"}]}, {"compound": "CC(=O)NC1C(O)CC(OCCn2cc(CN(Cc3cn(CCOC4(C(=O)O)CC(O)C(NC(C)=O)C(C(O)C(O)CO)O4)nn3)Cc3cn(CCOC4(C(=O)O)CC(O)C(NC(C)=O)C(C(O)C(O)CO)O4)nn3)nn2)(C(=O)O)OC1C(O)C(O)CO", "note": "[ME0385, Tris ((1-(2-O-(5-N-acetamido-3,5-dideoxy-D-glycero-α-D-galacto-2-nonylopyranosylonic acid))-2-oxoethyl-1H-1,2,3-triazol-4-yl)methyl)amine]", "values": [{"measurement": "pIC50", "setting": "[3]; Human adenovirus sp., HCE", "value": 6.97}, {"measurement": "pIC50", "setting": "[4]", "value": 6.78}, {"measurement": "pKd", "setting": "HAdV-37 fiber knob", "value": 4.12}, {"measurement": "binding mode with HAdV-37 fiber knob", "setting": "HAdV-37 fiber knob", "value": "one-to-one binding mode"}]}, {"compound": "CC(=O)N[C@@H]1C(O)C[C@](OCCCn2cc(CN(Cc3cn(CCCO[C@@]4(C(=O)O)CC(O)[C@H](NC(C)=O)C(C(O)C(O)CO)O4)nn3)Cc3cn(CCCO[C@]4(C(=O)O)CC(O)[C@@H](NC(C)=O)C(C(O)C(O)CO)O4)nn3)nn2)(C(=O)O)OC1C(O)C(O)CO", "note": "(stereo partly drawn) [ME0386, Tris ((1-(2-O-(5-N-acetamido-3,5-dideoxy-D-glycero-α-D-galacto-2-nonylopyranosylonic acid))-3-oxopropyl-1H-1,2,3-triazol-4-yl)methyl)amine]", "values": [{"measurement": "pIC50", "setting": "[3]; Human adenovirus sp., HCE", "value": 7.40}, {"measurement": "pIC50", "setting": "[4]", "value": 6.93}, {"measurement": "pKd", "setting": "HAdV-37 fiber knob", "value": 4.16}, {"measurement": "binding mode with HAdV-37 fiber knob", "setting": "HAdV-37 fiber knob", "value": "one-to-one binding mode"}]}, {"compound": "CCC(=O)N[C@H]1[C@H]([C@H](O)[C@H](O)CO)O[C@@](OCCCn2cc(CN(Cc3cn(CCCO[C@]4(C(=O)O)C[C@H](O)[C@@H](NC(=O)CC)[C@H]([C@H](O)[C@H](O)CO)O4)nn3)Cc3cn(CCCO[C@]4(C(=O)O)C[C@H](O)[C@@H](NC(=O)CC)[C@H]([C@H](O)[C@H](O)CO)O4)nn3)nn2)(C(=O)O)C[C@@H]1O", "note": "[ME0407]", "values": [{"measurement": "pIC50", "setting": "[3]; [5]", "value": 4.63}]}, {"compound": "CC(=O)N[C@@H]1C(O)C[C@](OCc2cn(CCN(CCn3cc(CO[C@]4(C(=O)O)CC(O)[C@@H](NC(C)=O)C(C(O)C(O)CO)O4)nn3)CCn3cc(CO[C@]4(C(=O)O)CC(O)[C@@H](NC(C)=O)C(CO)(C(O)CO)O4)nn3)nn2)(C(=O)O)OC1C(O)C(O)CO", "note": "(stereo partly drawn) [ME0462, Tris ((4-(2-O-(5-N-acetamido-3,5-dideoxy-D-glycero-α-D-galacto-2-nonulopyranosylonic acid))-2-oxomethyl-1H-1,2,3-triazol-1-yl)ethyl)amine]", "values": [{"measurement": "pIC50", "setting": "[3]; Human adenovirus sp., HCE", "value": 8.85}, {"measurement": "pIC50", "setting": "[4]", "value": 8.68}, {"measurement": "prevention of infection of HCE cells by HAdV-37 virions compared with ME0322", "setting": "[4]", "value": "more efficiently than ME0322"}, {"measurement": "pKd", "setting": "HAdV-37 fiber knob", "value": 5.02}]}, {"compound": "CC(=O)N[C@H]1[C@H]([C@H](O)[C@H](O)CO)OC(O)(C(=O)O)C[C@@H]1O", "note": "(some centres unmarked) [sialic acid]", "values": [{"measurement": "pIC50", "setting": "[3]; Human adenovirus sp., HCE", "value": 2.92}]}, {"compound": "Tris ((1-(2-O-(5-N-propanoylamido-3,5-dideoxy-D-glycero-α-D-galacto-2-nonylopyranosylonic acid))-2-oxoethyl-1H-1,2,3-triazol-4-yl)methyl)amine [ME0408]", "values": [{"measurement": "pIC50", "setting": "[3]; [5]", "value": 5.35}]}, {"compound": "Tris ((4-(2-O-(5-N-acetamido-3,5-dideoxy-D-glycero-α-D-galacto-2-nonulopyranosylonic acid))-2-oxoethyl-1H-1,2,3-triazol-1-yl)ethyl)amine [ME0461]", "values": [{"measurement": "pIC50", "setting": "[3]; [5]", "value": 6.42}, {"measurement": "prevention of infection of HCE cells by HAdV-37 virions compared with ME0322", "setting": "[4]", "value": "more efficiently than ME0322"}]}]}
